# In US9522928B2, “Mannosylated compounds useful for the prevention and the treatment of infectious diseases” (UNIVERSITE DE STRASBOURG, priority 2011, dated 2016):
# Entries after “also recorded” stand apart in the source; their conditions may differ.
# Assays:
# Dengue virus 2 (DV2) = test: Dengue virus (DV2) cis-infection of human DCs; format: cell-based
# Protocol: Compounds of the invention (TriManC24, TriManinsatC24) were serially diluted in water. Human DCs (2.5×10^5 in 200 μl) in 48-well plates were pre-treated with different concentrations of compounds or culture medium alone, in RPMI 1640 medium […] for 30 min at 37° C. They were exposed to DV-2 at a multiplicity of infection of 1.0, for 2 h at 37° C. Cells were washed and cultured in complete RPMI medium (condition 1) or in complete medium containing the tested compounds (TriManC24, TriMannsatC24) (condition 2). After 48 h, supernatants were titered and cells were subjected to intracellular detection of viral antigens. DCs were fixed with 4% (v/v) paraformaldehyde and permeabilized with 0.1% (v/v) Triton X-100 for 3 min at room temperature. After washing, they were labeled with mouse anti-DV type 2 monoclonal antibody (3H5.1, Millipore) and stained with APC -conjugated rat anti-mouse IgG1. Fluorescence intensity of the cells was analyzed by flow cytometry (FACSCalibur, Becton Dickinson), using the Cell Quest Pro software.
# There are four different dengue serotypes (1-4), and we have used DV type 2 (DV2) to further investigate the ability of the compounds of the invention (TriManC24 and TriManinsatC24) to inhibit the infection of human DCs. These cells were pre-treated with different concentrations of compounds or culture medium alone, for 30 min at 37° C. They were then exposed to DV2 for 2 hours at 37° C. Cells were washed to remove excess virions and compounds, and further cultured either in the absence (condition 1) or in the presence (condition 2) of the tested compounds. After 48 hours, cells were subjected to intracellular detection of viral antigens, and supernatants were titrated (not shown). […] FIG. 3A and FIG. 3B show the percentage of infected DCs when incubated with distinct concentrations of TriManinsatC24 in condition 1 and in condition 2, respectively. The histograms clearly show the protecting effects of TriManinsatC24, in particular in condition 2 wherein TriManinsatC24 at 10, 50 and 100 μM enabled the percentage of infected DCs to be reduced down to 40%, 20% and 2% respectively.
# HIV-1 R5 = HIV-1 R5 trans-infection of MAGI-CCR5 cells mediated by DCs; format: cell-based
# Protocol: ManC1, […] (comparative) and compounds of the invention (ManC24, ManC17, TriManC24, TriDiManC24, TriManinsatC24 and ManinsatC24) were serially diluted in water. Human DCs (1×10^5 in 200 μl ) were pre-treated with different concentrations of compounds, or mannan (Sigma) or culture medium alone, in RPMI 1640 medium containing 10% FBS for 45 min at 37° C., prior infection with HIV-1 (100 ng of p24Gag) for 3 h. Excess free virus and molecules were removed by three washes. DCs were then cocultured with MAGI -CCR5 cells (1×10^5) at 37° C. plated in a 48-well plate. After two days, viral infection of MAGI-CCR5 cells was quantitated following beta-galactosidase assays and enumerating blue cells by light microscopy.
# The IC50 were determined by serial dilution of each compound. The trans-infection assays were repeated a minimum of three times, and the IC50 determined using KaleidaGraph.
# To investigate the ability of the compounds of the invention to inhibit HIV-1 trans infection, we chose to infect human DCs in order to best mimic in vivo conditions. Human DCs were exposed to different compounds (namely, Mannan (control), ManC1 (comparative), ManC11 (comparative), ManC17, ManC24, TriManC24, TriDiManC24, ManinsatC24 and TriManinsatC24) for 45 min at 37° C., before inoculation with HIV-1 (strains R5 and X4) for 3 hours. After extensive washings to remove unbound virions and mannosides, DCs were then co-cultured with MAGI-CCR5 cells. This procedure allows precise quantification of HIV-1 replication in reporter MAGI-CCR5 cells by detection of beta-galactosidase activity. These cells express an integrated copy of the HIV long terminal repeat (LTR) fused to the beta-galactosidase reporter gene, and express the CD4 receptor and the CCR5 and CXCR4 co-receptors, required for entry of HIV-1 R5 and X4 respectively. Upon viral entry leading to viral Tat expression and activation of the LTR, these cells permit quantification of HIV trans-infection after two days.
# DC-SIGN CRD = target: T1, DC-SIGN CRD (Homo sapiens, UniProt Q9NNX6); test: Surface plasmon resonance (SPR) binding to immobilised DC-SIGN CRD; details: Kd=koff/kon
# T1 construct: human DC-SIGN (Lys62-Ala404, from R§D Systems); purchased R&D Systems ('R§D Systems' [sic])
# T1 sequence (Q9NNX6 62-404): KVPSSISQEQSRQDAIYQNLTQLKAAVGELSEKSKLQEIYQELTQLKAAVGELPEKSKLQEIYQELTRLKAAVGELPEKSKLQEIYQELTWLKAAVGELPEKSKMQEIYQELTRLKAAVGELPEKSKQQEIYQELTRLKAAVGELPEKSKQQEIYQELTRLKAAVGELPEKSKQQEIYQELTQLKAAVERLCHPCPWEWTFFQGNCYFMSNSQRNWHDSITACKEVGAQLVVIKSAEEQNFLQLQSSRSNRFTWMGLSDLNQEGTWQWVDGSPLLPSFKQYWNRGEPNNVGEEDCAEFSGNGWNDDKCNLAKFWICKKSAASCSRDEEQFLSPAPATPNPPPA
# Protocol: SPR experiments were performed using a Biacore 3000. […] Biosensor assays were performed with HEPES-buffered saline (10 mM HEPES, 150 mM sodium chloride, pH 7.4) containing 0.005% surfactant P20 and 5 mM CaCl2 as a running buffer. All binding experiments were carried out at 25° C. with a constant flow rate of 20 μl/min. The different compounds dissolved in the running buffer (0.39 to 50 μM) were injected for 3 min, followed by a dissociation phase of 3 min. The sensor chip surface was regenerated after each experiment by injecting 10 μL of EDTA 0.5 M pH 8.0. A simple channel activated by EDC/NHS and deactivated with ethanolamine was used as control. The kinetic parameters were calculated using the BlAeval 4.1 software. Analysis was performed using the simple Langmuir binding model with separate ka/kd (kon/koff). The specific binding profiles were obtained after subtracting the response signal from the control channel and from blank-buffer injection. The fitting to each model was judged by the chi square value and randomness of residue distribution compared to the theoretical model (Langmuir binding 1:1).
# The binding affinity of mannoside derivatives for the carbohydrate recognition domain (CRD) of DC-SIGN was assessed by surface plasmon resonance (SPR).
# A CM5 sensor chip was functionalized with the DC-SIGN CRD, and increasing concentrations of the various compounds, mannan as a positive control and octaethyleneglycol (OEG) as a negative control, were injected over the chip surface. The association (kon) and dissociation (koff) rate constants and the resulting dissociation equilibrium constant (Kd=koff/kon) for each assessed compound were determined (see Table 1 hereunder).
smiles,measurement,setting,value
CCCCCCCCCCCCCCCCCCCCCCCCC(=O)NC(COCCC(=O)NCCOCCOCCOCCOC1OC(CO)C(O)C(O)C1O)(COCCC(=O)NCCOCCOCCOCCOC1OC(CO)C(O)C(O)C1O)COCCC(=O)NCCOCCOCCOCCOC1OC(CO)C(O)C(O)C1O (stereo not shown) [TriManC24],inhibition of Dengue virus infection of DCs (in words),Dengue virus 2 (DV2),able to inhibit the direct infection of DCs by Dengue virus
same,residual level of trans-infection,HIV-1 R5,20%
same,KD (μM),DC-SIGN CRD,low micromolar range; also recorded: Sub-micromolar
same,Kd,DC-SIGN CRD,3.19 µM
